The test system of experiment [1] is B. longum strain CNCM I-2618 (NCC 2705). Kind of experiment: Serpin protein levels (ELISA) in B. longum NCC 2705 grown on different carbohydrates. It counts as cell-based, Bifidobacterium longum subsp longum. Here is the method:
B. longum strain CNCM I-2618 (NCC 2705) was grown in Biolector (growth conditions—anaerobic, 37° C.) in MRS+5 mM L-cysteine (MRSc) base without sugar, to which different carbohydrates were added.
(§1) 48-well microtiter plate with pH sensor and dissolved oxygen (DO) sensor were used to culture the strains in Biolector (m2p-labs Aachen, Germany). It was continuously shaken to prevent bacteria aggregation for 24 h and 48 h. Cultures were harvested by centrifugation and supernatant was removed. Pellet was resuspended in PBS supplemented with halt protease inhibitor (Sigma) and lysed using glassbeads. Lysate containing both soluble and insoluble material was then collected. Total protein content was measured using Pierce BCA kit (Thermofisher) and serpin protein concentration was determined using ELISA.
B. longum NCC 2705 was cultured in Biolector (as described in Example 1) in a base of MRSc without sugar, with the addition of different di-saccharides and tri-saccharides, at concentrations of 0.5 wt % and 1 wt %. Cultures were collected after 48 h of growth and analyzed for total & serpin protein levels (as described in Example 1).
B. longum NCC 2705 was cultured in Biolector (as described in Example 1) in a base of MRSc without sugar, with the addition of different short chain fructo-oligosaccharides (FOS), at concentrations of 1 wt %. Cultures were collected after 16 h of growth and analyzed for total & serpin protein levels (as described in Example 1).
The FOS used were (i) NutraFlora P95 FOs from Ingredion Inc, USA., a short-chain FOS with Glucose-Fructose (GF) chains with DP from 3 to 5 and comprising GF2, GF3 and GF4 molecules; (ii) Orafti P95 from Beneo, a short-chain FOS with DP from 2 to 8.

For experiment [2] the test system is unchanged. Kind of experiment: Culture density (Optical Density at 600 nm) of B. longum NCC 2705 grown on carbohydrates. It counts as cell-based, Bifidobacterium longum subsp longum. As to conditions: grown on different carbohydrates for 24 h and 48 h (FIG. 2). Here is the method:
as §1, with “B. longum strain CNCM I-2618 (NCC 2705) was grown in Biolector (growth conditions-anaerobic, 37° C.) in MRS+5 mM L-cysteine (MRSc) base without sugar, to which different carbohydrates were added. 48-well” for “48-well”, “[…]-labs” for “(m2p-labs”

The target of experiment [3] is T1, transglutaminase 2 (TG2) (Homo sapiens, UniProt P21980).
T1 sequence (P21980 1-687): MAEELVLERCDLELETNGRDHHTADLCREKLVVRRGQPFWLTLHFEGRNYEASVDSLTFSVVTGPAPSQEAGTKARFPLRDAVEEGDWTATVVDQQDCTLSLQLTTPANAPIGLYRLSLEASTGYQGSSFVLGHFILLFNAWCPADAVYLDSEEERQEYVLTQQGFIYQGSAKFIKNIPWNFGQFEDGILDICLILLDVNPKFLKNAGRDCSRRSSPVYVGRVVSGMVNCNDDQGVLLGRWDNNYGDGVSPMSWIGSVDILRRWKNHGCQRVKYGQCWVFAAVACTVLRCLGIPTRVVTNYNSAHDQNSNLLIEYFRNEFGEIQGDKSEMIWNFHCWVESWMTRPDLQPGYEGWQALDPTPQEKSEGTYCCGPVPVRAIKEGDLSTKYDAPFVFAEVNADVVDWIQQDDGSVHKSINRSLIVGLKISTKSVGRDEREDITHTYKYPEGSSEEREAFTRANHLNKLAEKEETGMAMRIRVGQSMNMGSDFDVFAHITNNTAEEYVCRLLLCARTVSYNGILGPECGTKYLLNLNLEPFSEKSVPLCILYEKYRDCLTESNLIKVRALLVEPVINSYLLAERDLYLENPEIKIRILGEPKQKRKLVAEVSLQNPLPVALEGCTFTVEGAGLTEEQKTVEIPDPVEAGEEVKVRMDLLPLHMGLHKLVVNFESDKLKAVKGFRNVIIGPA
Conditions: in-vitro, addition of elafin; cited from earlier work.

Experiment [4] deals with various forms of elastases and proteinase. As to conditions: cited from earlier work.

Ends that are not written are not given here.

The text below walks through data of US12644094B2, “Serpin production” (SOCIETE DES PRODUITS NESTLE S.A., priority 2019, dated 2026).

In the case of `O=C(CO)[C@@H](O)[C@H](O)[C@H](O)CO` [fructose, reference compound], the serpin protein levels result in experiment [1] (grown for 48 h on different carbohydrates, compared to all other sugars tested (FIG. 1)) is given as “increase B. longum NCC 2705 serpin protein levels”. Besides, in experiment [1] (grown on different carbohydrates for 24 h and 48 h (FIG. 2)), the serpin induction result was “induce serpin in B. longum NCC 2705 to a higher magnitude than galactose”. The “growth (culture density, Optical Density at 600 nm)” value in experiment [2] is “retarded growth”. As for `OC[C@H]1O[C@H](OC[C@H]2O[C@H](O[C@]3(CO)O[C@H](CO)[C@@H](O)[C@@H]3O)[C@H](O)[C@@H](O)[C@@H]2O)[C@H](O)[C@@H](O)[C@H]1O` [raffinose], the serpin levels result in experiment [1] (0.5 wt %, 48 h of growth, MRSc base without sugar (FIG. 3), effect not obtained at 1 wt %) is “significant increase in serpin levels”. Take `OC[C@H]1O[C@@](CO)(O[C@H]2O[C@H](CO)[C@@H](O)[C@H](O)[C@H]2O)[C@@H](O)[C@@H]1O` [saccharose]: the serpin production entry in experiment [1] (1 wt %, 48 h of growth, MRSc base without sugar (FIG. 3)) was “induce strongly serpin production”. For the molecule “elafin: human serine protease inhibitor (AQEPVKGPVSTKPGSCPIILIRCAMLNPPNRCLKDTDCPGIKKCCEGSCGMACFVPQ; ends and bridges not checked; cysteine pairing not given here; UniProt P19957 61-117, looked up)”, the “inhibition of transglutaminase 2 (TG2)” value in experiment [3] is “moderately inhibits transglutaminase 2 (TG2)”. Also, the “inhibitory capacity against elastases and proteinase” value in experiment [4] is “potent inhibitory capacity”.
